Laboratory results as given in patent US20240245703A1, “TOPICAL APPLICATION OF AGENTS TO REDUCE SUN SENSITIVITY AND IMPROVE TOPICAL PHOTODYNAMIC THERAPY” (Wright State University, priority 2021, published 2024).

Key:
UVB-induced MVP release = assay: MVP release in skin and plasma of wild-type and XPA KO mice after UVB or topical agonists; assay type: in vivo; conditions: WT and XPA KO mice, 5 kJ/m^2 UVB, 500 μM imipramine topical immediately post-UVB, 4 h
Description: The enzyme aSMase is also known to generate MVP in response to many stressors such as UVB via activation of PAFR. Yet other stimuli such as in response to a phorbol ester (TPA) are independent of the PAFR. Therefore, administration of inhibitors of aSMase may block UVB-MVP release in XPA deficient model, as well as in other situations where MVP release is independent of the PAFR.
Groups of 8-13 wild-type (C57BL/6) and XPA KO mice received no treatment (NT) or 1 KJ/m^2, 2.5 kJ/m^2, or 5 KJ/m^2 of UVB to their dorsal back skin. In some experiments, mice were treated with topical application of the PAFR agonist carbamoyl-PAF (CPAF; 50 μL of 100 μM) or the phorbol ester 12-O-tetradecanoylphorbol-13-acetate (TPA; 50 μL of 100 μM) in 90% ethanol: 10% DMSO vehicle. For the data in FIG. 2, triplicate skin biopsies were obtained and weighed four hours post-treatment, and MVP was measured. […] For the data in FIG. 3, plasma was obtained and MVP was measured four hours post-treatment. […] Data are the mean±S.E. fold change of MVP count. Groups were compared using One-Way ANOVA and Tukey's post-hoc test. Differences in samples were considered significant if the P value was less than 0.05. […]
For the data shown in FIG. 4, triplicate skin biopsies were obtained and MVP was measured. For the data shown in FIG. 5, plasma was obtained and MVP was measured. […]

human skin explants = assay: UVB-induced MVP formation in human skin explants ex vivo; assay type: cell-based; conditions: 4 h
Description: Four hours post-UVB triplicate skin biopsies were obtained and MVP quantified.

[1] = test system: PDT-induced immunosuppression; assay: contact hypersensitivity (CHS) to DNFB after PDT, ear thickness; assay type: in vivo, mice; conditions: wild-type mice
Description: Five days later the mice underwent sensitization with the neoantigen DNFB. To test for local immunosuppression, DNFB was applied to the PDT-treated area. To test for systemic immunosuppression, the DNFB was applied to back skin at least 2 cm away from the PDT-treated area. Nine days later the mice underwent elicitation reactions to DNFB by application to one ear, with vehicle applied to the other ear. One day later the ear thickness was obtained as a measure of CHS reaction and compared to pre-treatment and vehicle-treated values. Some mice were treated with intraperitoneal CPAF as a positive control for systemic immunosuppression.
For the data shown in FIG. 20, wild-type mice either were injected intraperitoneally with 250 ng CPAF as a positive control for immunosuppression, underwent PDT using 10 J/cm^2 blue light, or received no treatment (SHAM). […] Five days later the mice underwent sensitization with DNFB in PDT-treated (local immunosuppression) or non-PDT-treated skin (systemic immunosuppression). Nine days later the mice underwent elicitation reactions to ears with ear thickness measured at 24 hours. For the data shown in FIG. 21, wild type and aSMase-deficient (Smpd1−/−) mice underwent treatment with CPAF or PDT followed by DNFB sensitization/elicitation reactions as in FIG. 20. The data are mean±SD values. * Denotes statistically significant (P<0.05) changes from sham treatment values using two-way ANOVA.

UVB-induced erythema = assay: erythema and temperature response to low-fluence UVB on temple skin of subjects with rosacea; assay type: in vivo, human
Method: 30 minutes later, a 1 cm area of previously treated skin was irradiated with a low 300 J/m^2 UVB. Erythema was measured before UVB and at various times post-UVB irradiation in blinded fashion with a mexameter and temperature using a thermal imaging camera. […] Values represent the change in erythema from baseline for each subject at 24 hours post-UVB. […] The boxes represent the area treated with UVB. Insets into the photographs are thermal camera images of the UVB-treated skin, with white areas on the thermal imaging camera denoting increased temperature.

HaCaT XPA KO = assay: UVB-induced MVP release in HaCaT XPA deficient cells; assay type: cell-based, human; conditions: HaCaT XPA KO cell line
Method: HaCaT cells and HaCaT XPA deficient cells received no treatment (NT) or 1 KJ/m^2, 2.5 KJ/m^2, or 5 KJ/m^2 UVB radiation. After 4 hours, the supernatant was removed and the MVP concentration was measured. The numbers of MVP shown in FIG. 1 were normalized to cell count and NT. Data in FIG. 1 show the mean+S.E. fold change of at least three experiments. Groups were compared using One-Way ANOVA. (P<0.01) was considered statistically significant. * denotes changes between NT and UVB. #denotes changes between HaCaT and HaCaT XPA deficient cells.

SMILES: CN(C)CCCN1c2ccccc2CCc2ccccc21 [Imipramine]
- UVB-induced MVP in plasma (UVB-induced MVP release): blocked MVP accumulation
- UVB-induced MVP in skin (UVB-induced MVP release): blocked MVP accumulation in skin
- UVB-induced MVP formation, pre-treatment (human skin explants; 100 μL 500 μM applied 30 minutes before 2,500 J/m^2 UVB): blocks UVB-induced MVP formation
- UVB-induced MVP formation, post-treatment (human skin explants; 100 μL 500 μM applied immediately after 2,500 J/m^2 UVB): blocks UVB-induced MVP formation
- CPAF-induced systemic immunosuppression (CHS to DNFB) ([1]; 250 ng CPAF intraperitoneal, topical imipramine): did not affect the immunosuppressive effects of CPAF
- PDT-induced local immunosuppression (CHS to DNFB) ([1]; PDT 10 J/cm^2, 100 μL of 5% imipramine topical post-PDT, DNFB on PDT-treated skin): inhibited both local and systemic immunosuppression
- PDT-induced systemic immunosuppression (CHS to DNFB) ([1]; PDT 10 J/cm^2, 100 μL of 5% imipramine topical post-PDT, DNFB on non-PDT-treated skin): inhibited both local and systemic immunosuppression
- skin temperature (thermal imaging) after UVB (UVB-induced erythema; one representative rosacea subject, 4% imipramine + UVB versus vehicle + UVB): less temperature signature
- erythema response to UVB (UVB-induced erythema; subjects with rosacea, 0.1 ml 4% imipramine 30 minutes before 300 J/m^2 UVB, 24 hours post-UVB): blocks the erythema response
- increased MVP generation of XPA deficient keratinocytes (HaCaT XPA KO): blocked by imipramine
